Experimental findings from patent US11279727B2, “Anti-viral compounds and methods of use” (Metro International Biotech, LLC, priority 2020, dated 2022) are described below.

For the experiment, the system named is SARS-CoV-2, USA-WA1/2020. Kind of experiment: Antiviral assay: inhibition of SARS-CoV-2 cytopathic effect, neutral red. It is filed as cell-based. The conditions noted are these: Severe acute respiratory syndrome coronavirus 2; Vero 76 cells, CPE inhibition by 50%, neutral red; i) and ii) are separate determinations; read-out: Anti-viral Assay (EC50). On the technique in general: Protection from cytopathic effect is a common read-out in antiviral testing.

Broadly, the EC50 is the concentration at which the effect is half-maximal. As to `N#C[C@@]1(c2ccc3c(N)ncnn23)O[C@H](CO)[C@@H](O)[C@H]1O` [GS-441524], the EC50 lay within 500 to 1100 nM.
